Melting point data for four molecules are collected here from US6518260B1, “(α-aminophosphino) peptide derivatives, method for making same and therapeutic applications thereof” (Institut National de la Sante et de la Recherche Medicale …, priority 1996, dated 2003).

Usually melting point stands for the temperature of the solid-liquid transition. `Br.NC(Cc1ccccc1)P(=O)(O)CC(Cc1ccccc1)C(=O)N[C@H](CC(=O)O)Cc1ccccc1` (stereo partly shown) came in with a melting point of 240 °C.

For `CC(N)P(=O)(O)CC(Cc1ccc(-c2ccccc2)cc1)C(=O)N[C@@H](C)C(=O)OCc1ccccc1.O=C(O)C(F)(F)F` (stereo partly shown), the melting point came to 205 °C.

With `NC(Cc1ccccc1)P(=O)(CC(Cc1ccccc1)C(=O)N[C@@H](Cc1ccccc1)C(=O)OCc1ccccc1)OCc1ccccc1.O=CO` (stereo partly shown), the melting point was determined as 192 °C.

Molecule `NC(Cc1ccccc1)P(=O)(O)CC(Cc1ccccc1)C(=O)N[C@@H](Cc1ccccc1)C(=O)OCc1ccccc1.O=C(O)C(F)(F)F` (stereo partly shown) yielded a melting point of 210 °C.
